Read-outs that look alike come from different tables or passages of the source.
Assays:
[1] = biological target: T1, LPA2 receptors from the mouse (Mus musculus, UniProt Q9JL06); experiment: Calcium-mobilization assay (FURA-2), mouse LPA2; type: cell-based
T1 construct: expressed in transfected cells
Protocol: (§1) We investigated structure-activity relationships across species, LPAR subtypes and between Rx100 and two known process impurities encountered in manufacture: Rx103 (‘E’ isomer) and Rx200 (oleyl phosphate and impurity, which can be an Rx100 degradant along with oleyl alcohol). Rx100, Rx103, Rx200 and native LPA were investigated at different human LPAR subtypes. In addition, the activity of these compounds was evaluated at LPA2 receptors from the rhesus, rat and mouse species. Human LPA1/2/3 subtypes were transfected into mouse embryonic fibroblasts (MEF) or rat hepatoma cells (RH7777)—both of which are normally non-responsive or null to LPA. Human LPA4 was transfected into Chinese hamster ovary (CHO) cells and LPA5 into the B103 neuroblastoma cell line. […] The B103 rat neuroblastoma cell line is endogenously nonresponsive to LPA but expresses heterologous LPA5 receptors well. […] LPAR activation elicits a G-protein-mediated transient rise in intracellular calcium level that is proportional to the concentration of LPA applied. The intracellular calcium level was quantified by the calcium-selective fluorescent indicator FURA-2 (e.g., increased intracellular calcium surge=increased fluorescence).

Human LPA3 = biological target: T2, Human LPA3 (Homo sapiens, UniProt Q9UBY5); experiment: Calcium-mobilization assay (FURA-2), human LPA3 transfected cells; type: cell-based; details: for EC50: EC50 [nM], mean
T2 construct: expressed in transfected cells; host or cells: mouse embryonic fibroblasts (MEF) or rat hepatoma RH7777
T2 sequence (Q9UBY5 1-353): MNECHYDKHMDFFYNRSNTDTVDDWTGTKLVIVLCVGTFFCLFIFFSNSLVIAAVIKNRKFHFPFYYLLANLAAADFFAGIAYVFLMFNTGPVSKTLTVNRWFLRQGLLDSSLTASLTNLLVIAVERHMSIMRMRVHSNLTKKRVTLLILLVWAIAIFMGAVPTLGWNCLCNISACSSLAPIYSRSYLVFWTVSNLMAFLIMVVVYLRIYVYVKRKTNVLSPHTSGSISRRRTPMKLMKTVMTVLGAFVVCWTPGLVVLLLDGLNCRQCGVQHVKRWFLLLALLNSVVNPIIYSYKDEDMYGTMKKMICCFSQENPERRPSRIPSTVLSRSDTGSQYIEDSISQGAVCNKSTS
Protocol: as §1

Male Sprague-Dawley rats = experiment: Respiratory system safety pharmacology (plethysmograph); type: in vivo
Protocol: Male Sprague-Dawley rats (n=6/group) were administered Rx100.lysine as a single oral (gavage) doses of 0 (10 mM histidine in sterile water for injection, USP), 1.81, 6.33, and 18.1 mg/kg and monitored for respiratory function. Animals were placed in a plesthymograph and monitored at pre-dose and for consecutive 30 minute averages beginning 30 minutes postdose through 6 hours postdose and again at 24 hours postdose. Parameters evaluated included tidal volume, respiratory rate and minute volume. […] It was concluded that there were no adverse effects on the respiratory system in rats at doses of 1.81 mg/kg.

[2] = Rx100 salt screening (solid formation, XRPD wet/dry, filterability, exposure to RH > 90%)
Protocol: We designed a complex and unconventional screening regime to screen for Rx100 crystalline salts. […] The screening regime is described as follows.
Rx100.FA in the form of a viscous liquid and eighteen counter ions were used as starting materials. These counter ions are listed and numbered in Table 4. The numbers will be used for grouping the resulting solids. The screening was performed in three stages.
Stage one (1) included screening 11 counter ions: sodium hydroxide, ammonium hydroxide, ethylenediamine, diethylamine, tromethamine (Tris), hydroxyethyl morpholine, benzathine, dimethylamino ethanol, L-Arginine, L-Lysine, L-Histidine. […] In stage 1, we performed three rounds of experiment.
In the first round of experiment, four (4) solvent systems, i.e., isopropyl alcohol (IPA), diethyl ether (DEE), IPA:water (a mixture at a volume ratio of 95:5) and tetrahydrofuran (THF), were used. Thus in this first round of screening, 44 individual base-acid reactions were conducted in 44 vials.
First, Rx100.FA and each of the bases were mixed in a vial. […] In each of the 44 vials, 211.1 μL of the prepared liquid, which was equivalent to about 35 mg of Rx100.FA, was first dispensed. Then, one equivalent (molar) of each of the 11 bases was dispensed in its corresponding vial. For example, the base sodium hydroxide was added to vials 1, 12, 23 and 34. Similarly, L-histidine was added to vials 11, 22, 33 and 44. Observations were recorded upon addition of the bases in to Rx100.FA.
Second, the solvent in each mixture was depleted. All vials containing the mixtures of Rx100.FA and each of the bases were left under moderate vacuum and nitrogen bleed at room temperature overnight to evaporate the solvent. The vials were then kept under full vacuum for about an hour to make sure the solvents (ethanol and water) are evaporated. Observations on formation of solid upon evaporation were recorded.
Third, solvents were added in each vial to induce solid formation. In each vial, a stir bar and one of the four selected solvents (each 5 volumes with respect to the Rx100.FA) were added. The vials were then capped. IPA was added to the first set of 11 vials (1-11), DEE added to the second set of 11 vials (12-22), IPA:water added to the third set of 11 vials (23-33), and THF added to the fourth set of 11 vials (34-44). The vials were left at room temperature while stirring for at least 5 hours. Observations were recorded.
The first set of XRPD analyses were recorded as “wet” samples. The solids were dried under vacuum for 1 hour and at room temperature followed by XRPD as “dry” sample. The dry solid was then exposed to relative humidity of more than 90% overnight followed by XRPD analysis. For XRPD naming, a number and a letter were used. The number refers to the counter ion and the letter refers to the chronological discovered XRPD pattern of that particular salt.
In the second round of experiment of stage one, another four (4) solvent systems, i.e., methanol (MeOH), tert-Butyl methyl ether (tBME), ethyl acetate and toluene, were used in the same 44 vials as used in the first round experiment. The solvents in all 44 vials from the first round were evaporated to dryness under vacuum and nitrogen bleed. The 4 new solvents were then added into the vials. Methanol was added to the first set of 11 vials (1-11), tBME added to the second set of 11 vials (12-22), Ethyl acetate added to the third set of 11 vials (23-33), and Toluene added to the fourth set of 11 vials (34-44). The same procedure as in the first round of experiment was followed for these new solvents and samples were taken for XRPD analysis.
In the third round of experiment, effect of base equivalence was assessed. […] After addition of the extra base, the previous solvent was evaporated and new solvents added.

T1 sequence (Q9JL06 whole entry): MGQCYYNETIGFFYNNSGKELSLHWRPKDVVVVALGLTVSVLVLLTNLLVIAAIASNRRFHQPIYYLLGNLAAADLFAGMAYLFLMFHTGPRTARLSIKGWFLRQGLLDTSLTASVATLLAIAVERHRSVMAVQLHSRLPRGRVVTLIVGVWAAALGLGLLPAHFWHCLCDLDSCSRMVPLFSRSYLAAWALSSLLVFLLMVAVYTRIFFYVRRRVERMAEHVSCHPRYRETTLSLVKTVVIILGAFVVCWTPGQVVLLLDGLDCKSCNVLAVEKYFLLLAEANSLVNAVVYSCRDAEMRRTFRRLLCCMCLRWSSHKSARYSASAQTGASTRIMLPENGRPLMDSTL

With CCCCCCCC/C=C\CCCCCCCCOP(O)(O)=S [Rx100, (Z)—O-octadec-9-en-1-yl O,O-dihydrogen phosphorothioate] the EC50 [1] was 167 nM, the Emax ([1]; read-out: Emax (% of LPA)) was 100% and the EC50 (Human LPA3; LPA3 DKO MEF, human) was 205 nM. The EC50 (Human LPA3; LPA3 RH7777, human) was 113 nM, the Emax (Human LPA3; RH7777, read-out: Emax (% of LPA)) was 71% and the Emax (Human LPA3; read-out: Emax (% of LPA)) was 82%.
For CCCCCCCC/C=C\CCCCCCCCOP(O)(O)=S [Rx100.L-Lysine, (Z)—O-octadec-9-en-1-yl O,O-dihydrogen phosphorothioate], the “effects on respiratory parameters” value (Male Sprague-Dawley rats; 1.81 mg/kg) was “No statistically significant or biologically meaningful effects”, the “increase in respiratory rates” value (Male Sprague-Dawley rats; 6.33 mg/kg) was 68% and the “reduction in tidal volume” value (Male Sprague-Dawley rats; 6.33 mg/kg) was 29%. For the same compound, the “respiratory values 24 hours post dose” value (Male Sprague-Dawley rats; 6.33 mg/kg) was “essentially normal”, the “increase in respiratory rates” value (Male Sprague-Dawley rats; 18.1 mg/kg) was 65% and the “reduction in tidal volume” value (Male Sprague-Dawley rats; 18.1 mg/kg) was 32%. The “respiratory values 24 hours post dose” value (Male Sprague-Dawley rats; 18.1 mg/kg, reduced in magnitude) was “still showed effects”, the “dose with no adverse effects on the respiratory system” value (Male Sprague-Dawley rats; male, Sprague-Dawley, rat, in vivo, oral, 24 h) was 1.81 mg/kg and the “Stability at high humidity” value [2] was “stable at high humidity”. For the same compound, the Crystallinity ([2]; Rx100 salt formed with the named base, XRPD, listed as Rx100.L-Lysine salt) was “showed crystallinity” and the Filterability ([2]; Rx100 salt formed with the named base, listed as Rx100.L-Lysine salt) was “filterable”.

Source: US20170226139A1, “CRYSTALLINE SALTS OF (Z)-O-OCTADEC-9-EN-1-YL O,O-DIHYDROGEN PHOSPHOROTHIOATE” (priority 2013, published 2017)
